Test results as given in patent US10344035B2, “Salt of quinolone compound, polymorphs thereof, preparation method therefor, composition, and applications” (SHANGHAI PHARMACEUTICALS HOLDING CO., LTD., priority 2015, dated 2019).
“And” between values parts separate entries of the source, which are not always exact repeats. Equal entries are not always repeated.

Key:
[1] = tested on: H1993 human lung cancer cell; assay: Inhibition of proliferation of human lung cancer H1993 cells (CCK-8); assay type: cell-based; settings: Homo sapiens, NCI-H1993, 72 h, CCK-8, 72 hours incubation; read-out: IC50, proliferation of H1993 cell line
Protocol: CCK-8 is a kit for detecting cell proliferation, cell survival and cytotoxicity and an alternative method for the MTT method.
All samples were formulated to a 10^−2 M stock solution with DMSO and stored in small quantities at −80° C. for use.
1, Cell culture and inoculation: on the first day of the experiment, took normal cultured cells, when cells were in the exponential growth phase, the cells were dispersed by digesting and then inoculated in a 96-well cell culture plate at a density of 5.5×10^4 cells/mL (representing 55000 cells per mL), 90 μL per well; after completion of inoculation, the microplate was placed at 37° C. under 5% CO2 condition overnight.
According to different cell lines, the starting concentration of each compound was different.
3, Data acquisition: the compound and cells were incubated for 72 hours, the microplate containing the cells was taken out from incubator, 10 μL Cell Counting Kit-8 reaction solution was added to each well, and the microplate was placed in an incubator for 2-3 hours. The absorbance values were measured at 450 nm on the Flexstation 3 and set 650 nm as the reference wavelength.

[2] = tested on: human hepatoma MHCC97H cell line; assay: Anti-tumor effect in MHCC97H xenograft model; assay type: in vivo, BALB/c nude mice; settings: for relative tumor volume (x ± S) / tumor volume (x ± S) / T/C / TGI (relative tumor inhibition rate): 25th day after dosing; for TGI (relative tumor inhibition rate): from relative tumor volume; for Tumor weight (x ± s) / TGI (tumor weight): 26th day after dosing; for TGI (tumor weight): from tumor weight
Protocol: BALB/c nude mice were subcutaneously inoculated with MHCC97H cells to develop human hepatocellular carcinoma subcutaneously transplanted tumor model. The experiment was divided into groups including crystal form A of SPH1772 ditartrate (0.05 mg/kg, 0.5 mg/kg and 5 mg/kg), positive control INC280 hydrochloride (5 mg/kg), and Vehicle control group, 10 mice in each group, intragastric administration once a day, lasting 21 days. The efficacy was according to the relative tumor inhibition rate (TGI) and tumor growth delay time, the safety was evaluated according to animal weight and death.
BALB/c nude mice, female, 7 to 9 weeks old (the age when mice were inoculated with tumor cells), weight 19.5 to 23.9 g, 75 animals. BALB/c nude mice were purchased from Shanghai Lingchang Biotechnology Co., Ltd., animal certificate number: 2013001816956. Rearing environment: SPF level.
MHCC97H (Zhongshan Hospital subsidiary to Fudan University) was cultured in DMEM containing 10% fetal bovine serum. MHCC97H cells were collected during exponential growth phase, the cells in PBS was re-suspended to a suitable concentration for subcutaneous tumor inoculation in mice.
0.2 mL 1×10^7 MHCC97H cells re-suspended in PBS and Matrigel (1:1) was subcutaneously inoculated to the right side of 75 mice. When the mean tumor volume reached 157 mm^3, mice were randomly grouped based on tumor volume. The formula for calculating the tumor volume was that long diameter×short diameter^2/2.
Relative tumor inhibition rate TGI (%): TGI=1−T/C (%). T/C % is the relative tumor proliferation rate, which is the percentage of the relative tumor volume or tumor weight in the treatment group to that of the control group at a certain time. T and C are respectively the relative tumor volume (RTV) or tumor weight (TW) of the treatment group and control group at a certain time.
The formula was as follows: T/C %=TRTV/CRTV*100% (TRTV: mean RTV in the treatment group; CRTV: mean RTV in the control group; RTV=Vt/V0, V0 was the tumor volume of the animal when grouped, and Vt was the tumor volume of the animal after treatment). Or T/C %=TTW/CTW×100% (TTW: mean tumor weight in the treatment group at the end of the experiment; CTW: mean tumor weight in the control group at the end of experiment).
1.5 h and 24 h after the last dose, blood and tumor were collected, the tumor was weighted, and photographs were taken.
All experimental results were expressed as mean tumor volume±SEM (mean standard error). Statistical analysis between different groups was performed on the best point of drug treatment (usually after the last dosing). The independent sample T test method was used to evaluate whether there was significant difference between the relative tumor volume and tumor weight in the treatment group to that of the control group. All data was analyzed by SPSS 18.0. p<0.05 was considered having significant differences.

[3] = Body weight change of tumor-bearing mice in LU2503 model; assay type: in vivo, BALB/c nude mice; settings: QD*21, 21th day
Source text: Tumor tissue was harvested from HuPrime® lung tumor xenograft model LU2503 (R11P6) tumor-bearing mice and cut into 2 to 3 mm diameter tumor blocks subcutaneously inoculated at the right anterior scapular of BALB/c nude mice. When the mean tumor volume reached approximately 139 mm^3, mice were randomly divided to […] based on tumor volume, 8 mice in each group, 4 mice per cage. The day of grouping was defined as day 0. Dosing started on day 0 and ended on day 20. The experiment ended on the 21st day. The experiment was divided into groups of crystal form A of SPH1772 ditartrate (0.3 mg/kg, 3 mg/kg and 30 mg/kg), positive control INC280 (30 mg/kg), positive control Crizotinib (30 mg/kg) and vehicle group, 8 mice in each group, intragastric administration once a day, lasting 21 days.

[4] = 0.05 mg/kg intragastric once a day
[5] = 0.5 mg/kg intragastric once a day
[6] = 5 mg/kg intragastric once a day

Structure (SMILES): Cn1cc(-c2cnc3ccc(Cn4nnc5ncc(-c6cnn(C)c6)nc54)cc3c2)cn1 [crystal form A of SPH1772 ditartrate]
- IC50 [1]: 0.7 nM
- relative tumor volume (x ± S) [2, 4]: 3.03 ± 0.56
- tumor volume (x ± S) [2, 4]: 469 mm^3 and 469 ± 85 mm^3
- T/C ([2]; 0.05 mg/kg): 26%
- TGI (relative tumor inhibition rate) ([2]; 0.05 mg/kg): 74%
- Tumor weight (x ± s) ([2]; 0.05 mg/kg): 493 ± 71 mg
- TGI (tumor weight) ([2]; 0.05 mg/kg): 69%
- relative tumor volume (x ± S) [2, 5]: 0.39 ± 0.03
- tumor volume (x ± S) [2, 5]: 60 mm^3 and 60 ± 5 mm^3
- T/C ([2]; 0.5 mg/kg): 3%
- TGI (relative tumor inhibition rate) ([2]; 0.5 mg/kg): 97%
- Tumor weight (x ± s) ([2]; 0.5 mg/kg): 48 ± 2 mg
- TGI (tumor weight) ([2]; 0.5 mg/kg): 97%
- relative tumor volume (x ± S) [2, 6]: 0.14 ± 0.02
- tumor volume (x ± S) [2, 6]: 22 mm^3 and 22 ± 3 mm^3
- T/C ([2]; 5 mg/kg): 1%
- TGI (relative tumor inhibition rate) ([2]; 5 mg/kg): 99%
- Tumor weight (x ± s) ([2]; 5 mg/kg): 31 ± 3 mg
- TGI (tumor weight) ([2]; 5 mg/kg): 98%
- weight change percentage of tumor-bearing mice ([3]; 0.3 mg/kg): −1.61%
- weight change percentage of tumor-bearing mice ([3]; 3 mg/kg): −1.88%
- weight change percentage of tumor-bearing mice ([3]; 30 mg/kg): −2.01%
